{"source": "patent US6881418B2", "about": "“Liquid deodorant killing microorganism and method of microorganism-killing deodorization” (K.I Chemical Industry Co., Ltd., priority 2001, dated 2005)", "key": {"[1]": {"test_system": "Escherichia genus microbes", "assay": "Test of fast-acting microbicidal efficacy (viable cell count against contact time)", "type": "cell-based", "conditions": "pH 8", "description": "Escherichia genus microbes, which were subjected to cell washing, were diluted with phosphate/citrate buffer solution (pH 8) to a concentration of approximately 10^6 CFU/ml, and 1 L each of the prepared solution was poured into glass beakers. Example 1 or 8, and the powdered substance of Compound A1 were each added thereto so as to bring to a prescribed concentration (indicated based on active ingredient), respectively, and the mixtures were stirred for 90 minutes. A portion of each mixture was taken at 5, 10, 30, and 90 minutes and was diluted with sterilized water. Then, the diluted mixture was inoculated onto a nutrient plate agar medium and cultured in an incubator at 30° C. for 3 days. Then, viable cells therein were counted. The results are shown in Tables 6 and 7 in the unit of CFU/ml. Tables 6 and 7 indicate the results obtained by conducting the tests over two separate occasions under the above conditions."}, "[2]": {"assay": "Test of sustainability of deodorant effect against active sludge (gas detector tubes)", "conditions": "gas phase over 40% sludge suspension, ND = equal to or lower than detection limit", "description": "Active sludge (dehydrated cake, water content 70%) obtained from a sewage treatment plant was used for tests on the deodorant effect. The obtained active sludge was suspended with distilled water to form a 40% suspension. Example 9, Comparative Example 2, or powdered Compound A2 was then added to the suspension in a prescribed amount (indicated based on active ingredient) and stirred. 200 g of each suspension containing Example 9, Comparative Example 2, or powdered Compound A2 was transferred to a 1-liter Erlenmeyer flask, and the flask was sealed with a rubber stopper provided with 2 glass pipes each having a rubber tube and a pinchcock. […] The measurement of each gas component was conducted by inserting a gas detector tube into one of the rubber tubes with both pinchcocks open. Used herein were a gas detector 3L (GASTEC CORPORATION) for ammonia, a gas detector 3L (GASTEC CORPORATION) for hydrogen sulfide, and a gas detector 71 (GASTEC CORPORATION) for methyl mercaptan."}, "[3]": {"conditions": "10 ppm active ingredient, 1 hour later"}, "[4]": {"conditions": "10 ppm active ingredient, 2 hours later"}, "[5]": {"conditions": "20 ppm active ingredient, 1 hour later"}, "[6]": {"conditions": "20 ppm active ingredient, 2 hours later"}, "[7]": {"conditions": "40 ppm active ingredient, 1 hour later"}, "[8]": {"conditions": "40 ppm active ingredient, 2 hours later"}, "[9]": {"conditions": "80 ppm active ingredient, 2 hours later"}}, "data": [{"smiles": "CC1(C)C(=O)N(Br)C(=O)N1Br", "note": "[Compound A1, 1,3-dibromo-5,5-dimethylhydantoin]", "values": [{"measurement": "viable cells", "setting": "[1]; 0.25 ppm active ingredient, contact time 5 min, Table 6", "result": "3.0 × 10^6 CFU/ml"}, {"measurement": "viable cells", "setting": "[1]; 0.25 ppm active ingredient, contact time 5 min, Table 7", "result": "5.6 × 10^6 CFU/ml"}, {"measurement": "viable cells", "setting": "[1]; 0.25 ppm active ingredient, contact time 10 min, Table 6", "result": "3.1 × 10^6 CFU/ml"}, {"measurement": "viable cells", "setting": "[1]; 0.25 ppm active ingredient, contact time 10 min, Table 7", "result": "5.1 × 10^6 CFU/ml"}, {"measurement": "viable cells", "setting": "[1]; 0.25 ppm active ingredient, contact time 30 min, Table 6", "result": "4.5 × 10^5 CFU/ml"}, {"measurement": "viable cells", "setting": "[1]; 0.25 ppm active ingredient, contact time 30 min, Table 7", "result": "3.7 × 10^5 CFU/ml"}, {"measurement": "viable cells", "setting": "[1]; 0.25 ppm active ingredient, contact time 90 min, Table 6", "result": "3.7 × 10^5 CFU/ml"}, {"measurement": "viable cells", "setting": "[1]; 0.25 ppm active ingredient, contact time 90 min, Table 7", "result": "2.7 × 10^5 CFU/ml"}, {"measurement": "viable cells", "setting": "[1]; 0.5 ppm active ingredient, contact time 5 min, Table 6", "result": "3.0 × 10^6 CFU/ml"}, {"measurement": "viable cells", "setting": "[1]; 0.5 ppm active ingredient, contact time 5 min, Table 7", "result": "5.0 × 10^6 CFU/ml"}, {"measurement": "viable cells", "setting": "[1]; 0.5 ppm active ingredient, contact time 10 min, Table 6", "result": "7.7 × 10^5 CFU/ml"}, {"measurement": "viable cells", "setting": "[1]; 0.5 ppm active ingredient, contact time 10 min, Table 7", "result": "6.7 × 10^5 CFU/ml"}, {"measurement": "viable cells", "setting": "[1]; 0.5 ppm active ingredient, contact time 30 min, Table 6", "result": "8.0 × 10^4 CFU/ml"}, {"measurement": "viable cells", "setting": "[1]; 0.5 ppm active ingredient, contact time 30 min, Table 7", "result": "8.0 × 10^4 CFU/ml"}, {"measurement": "viable cells", "setting": "[1]; 0.5 ppm active ingredient, contact time 90 min, Table 6", "result": "<10^2 CFU/ml"}, {"measurement": "viable cells", "setting": "[1]; 0.5 ppm active ingredient, contact time 90 min, Table 7", "result": "<10^2 CFU/ml"}, {"measurement": "viable cells", "setting": "[1]; 1.0 ppm active ingredient, contact time 5 min, Table 6", "result": "2.9 × 10^6 CFU/ml"}, {"measurement": "viable cells", "setting": "[1]; 1.0 ppm active ingredient, contact time 5 min, Table 7", "result": "4.8 × 10^6 CFU/ml"}, {"measurement": "viable cells", "setting": "[1]; 1.0 ppm active ingredient, contact time 10 min, Table 6", "result": "2.7 × 10^5 CFU/ml"}, {"measurement": "viable cells", "setting": "[1]; 1.0 ppm active ingredient, contact time 10 min, Table 7", "result": "2.9 × 10^5 CFU/ml"}, {"measurement": "viable cells", "setting": "[1]; 1.0 ppm active ingredient, contact time 30 min, Table 6", "result": "4.0 × 10^3 CFU/ml"}, {"measurement": "viable cells", "setting": "[1]; 1.0 ppm active ingredient, contact time 30 min, Table 7", "result": "8.8 × 10^3 CFU/ml"}, {"measurement": "viable cells", "setting": "[1]; 1.0 ppm active ingredient, contact time 90 min, Table 6", "result": "<10^2 CFU/ml"}, {"measurement": "viable cells", "setting": "[1]; 1.0 ppm active ingredient, contact time 90 min, Table 7", "result": "<10^2 CFU/ml"}, {"measurement": "viable cells", "setting": "[1]; 1.5 ppm active ingredient, contact time 5 min, Table 6", "result": "3.3 × 10^6 CFU/ml"}, {"measurement": "viable cells", "setting": "[1]; 1.5 ppm active ingredient, contact time 5 min, Table 7", "result": "4.3 × 10^6 CFU/ml"}, {"measurement": "viable cells", "setting": "[1]; 1.5 ppm active ingredient, contact time 10 min, Table 6", "result": "5.0 × 10^4 CFU/ml"}, {"measurement": "viable cells", "setting": "[1]; 1.5 ppm active ingredient, contact time 10 min, Table 7", "result": "3.0 × 10^4 CFU/ml"}, {"measurement": "viable cells", "setting": "[1]; 1.5 ppm active ingredient, contact time 30 min, Table 6", "result": "2.0 × 10^2 CFU/ml"}, {"measurement": "viable cells", "setting": "[1]; 1.5 ppm active ingredient, contact time 30 min, Table 7", "result": "<10^2 CFU/ml"}, {"measurement": "viable cells", "setting": "[1]; 1.5 ppm active ingredient, contact time 90 min, Table 6", "result": "<10^2 CFU/ml"}, {"measurement": "viable cells", "setting": "[1]; 1.5 ppm active ingredient, contact time 90 min, Table 7", "result": "<10^2 CFU/ml"}, {"measurement": "viable cells", "setting": "[1]; 2.0 ppm active ingredient, contact time 5 min, Table 6", "result": "1.0 × 10^5 CFU/ml"}, {"measurement": "viable cells", "setting": "[1]; 2.0 ppm active ingredient, contact time 5 min, Table 7", "result": "3.2 × 10^5 CFU/ml"}, {"measurement": "viable cells", "setting": "[1]; 2.0 ppm active ingredient, contact time 10 min, Table 6", "result": "2.0 × 10^4 CFU/ml"}, {"measurement": "viable cells", "setting": "[1]; 2.0 ppm active ingredient, contact time 10 min, Table 7", "result": "1.2 × 10^4 CFU/ml"}, {"measurement": "viable cells", "setting": "[1]; 2.0 ppm active ingredient, contact time 30 min, Table 6", "result": "<10^2 CFU/ml"}, {"measurement": "viable cells", "setting": "[1]; 2.0 ppm active ingredient, contact time 30 min, Table 7", "result": "<10^2 CFU/ml"}, {"measurement": "viable cells", "setting": "[1]; 2.0 ppm active ingredient, contact time 90 min, Table 6", "result": "<10^2 CFU/ml"}, {"measurement": "viable cells", "setting": "[1]; 2.0 ppm active ingredient, contact time 90 min, Table 7", "result": "<10^2 CFU/ml"}]}, {"smiles": "CC1(C)C(=O)N(Cl)C(=O)N1Br", "note": "[Compound A2, 1-bromo-3-chloro-5,5-dimethylhydantoin]", "values": [{"measurement": "Volume of Ammonia", "setting": "[2]; [3]", "result": 40, "unit": "ppm"}, {"measurement": "Volume of Hydrogen sulfide", "setting": "[2]; [3]", "result": 5.0, "unit": "ppm"}, {"measurement": "Volume of Methyl mercaptan", "setting": "[2]; [3]", "result": 10, "unit": "ppm"}, {"measurement": "Volume of Ammonia", "setting": "[2]; [4]", "result": 40, "unit": "ppm"}, {"measurement": "Volume of Hydrogen sulfide", "setting": "[2]; [4]", "result": 5.0, "unit": "ppm"}, {"measurement": "Volume of Methyl mercaptan", "setting": "[2]; [4]", "result": 10, "unit": "ppm"}, {"measurement": "Volume of Ammonia", "setting": "[2]; [5]", "result": 40, "unit": "ppm"}, {"measurement": "Volume of Hydrogen sulfide", "setting": "[2]; [5]", "result": 5.0, "unit": "ppm"}, {"measurement": "Volume of Methyl mercaptan", "setting": "[2]; [5]", "result": 10, "unit": "ppm"}, {"measurement": "Volume of Ammonia", "setting": "[2]; [6]", "result": 40, "unit": "ppm"}, {"measurement": "Volume of Hydrogen sulfide", "setting": "[2]; [6]", "result": 5.0, "unit": "ppm"}, {"measurement": "Volume of Methyl mercaptan", "setting": "[2]; [6]", "result": 10, "unit": "ppm"}, {"measurement": "Volume of Ammonia", "setting": "[2]; [7]", "result": 10, "unit": "ppm"}, {"measurement": "Volume of Hydrogen sulfide", "setting": "[2]; [7]", "result": 2.5, "unit": "ppm"}, {"measurement": "Volume of Methyl mercaptan", "setting": "[2]; [7]", "result": 0.5, "unit": "ppm"}, {"measurement": "Volume of Ammonia", "setting": "[2]; [8]", "result": 40, "unit": "ppm"}, {"measurement": "Volume of Hydrogen sulfide", "setting": "[2]; [8]", "result": 5.0, "unit": "ppm"}, {"measurement": "Volume of Methyl mercaptan", "setting": "[2]; [8]", "result": 10, "unit": "ppm"}, {"measurement": "Volume of Ammonia", "setting": "[2]; [9]", "result": 20, "unit": "ppm"}, {"measurement": "Volume of Hydrogen sulfide", "setting": "[2]; [9]", "result": 5.0, "unit": "ppm"}, {"measurement": "Volume of Methyl mercaptan", "setting": "[2]; [9]", "result": 5.0, "unit": "ppm"}]}]}
